# Values of other authors, collected in patent US10393636B2 (priority 2017, dated 2019).
smiles,measurement,value
CN[C@H]1CC[C@@H](c2ccc(Cl)c(Cl)c2)c2ccccc21 [Sertraline],Log P,5.06
